# From patent US6653455B1, “Crystallization of doxorubicin hydrochloride” (Mercian Corporation, priority 1998, dated 2003)
# Counter-ions that a name gives are not always drawn. Marks after values point to notes of the source that are not given here.
# Tests used:
# Type in all cases: physicochemical
# [1] = Solubility test (dissolving time in water); conditions: 50 mg sample in 5 ml water, 25° C., about 600 rounds/minute stirring, time until completely dissolved; hydrochloride
# Procedure: A beaker of 20 ml (minor diameter: 30 mm) was charged with 5 ml of water and then 50 mg of a DOX.HCl crystal sample, and the sample was stirred at 25° C. and about 600 rounds/minute by means of a magnetic stirrer (diameter 6 mm×length 10 mm). Time consumed until the sample was completely dissolved was measured wile observing the dissolving state every 30 seconds with naked eyes.
# The solubility test described above was carried out for a DXR.USP standard product (Lot J) (average particle diameter: 28 μm) as comparison and Examples 2, 46,51, 55, 56, 57 and 58, and the results thereof are shown in Table III.
# [2] = Hygroscopicity, cup method (weight change); conditions: weight-increasing rate, 25° C., 50 to 60% RH, 15 minutes; crystals dried at 40° C. under vacuum; hydrochloride
# Procedure: Determined by the following cup method. To be specific, about 15 to 20 mg of the sample was put in a cylindrical cup having a diameter of 6 mm and a depth of 6 mm and left standing at a fixed temperature (25° C.) and relative humidity (50 to 60% RH) for 15 minutes to measure a weight change, whereby the hygroscopicity was evaluated.
# In the following respective examples, a weight-increasing rate of 0.40% or more is shown by an evaluation criterion that the hygroscopicity is large (−); a weight-increasing rate of 0.20% or more and less than 0.40% is shown by an evaluation criterion that the hygroscopicity is ;intermediate (±); and a weight-increasing rate of less than 0.20% is shown by an evaluation criterion that the hygroscopicity is small: (+).
# [3] = Average particle diameter, microscopic method (Heywood circle-corresponding diameter); conditions: 10 typical crystals on photograph, hydrochloride
# Text: The average particle diameter is shown by a diameter of a circle having the same area as an injected area of the particle, a so-called Heywood diameter (circle-corresponding diameter) according to a microscopic method (injected image). A small amount of the crystals was put on a slide glass, and 1 to 2 drops of a hydrophilic surfactant (sesquioleic acid sorbitan) were fallen thereon to disperse them. It was photographed by means of a polarization microscope (photographing lens: 3.3 magnifications, objective lens: 20 magnifications) equipped with a photographing device. Optional 10 pieces of the typical crystals were selected on the photograph to measure a long diameter and a short diameter thereof An (projected) area of the particle was shown by long diameter×short diameter, and the particle diameter was shown by a diameter of a circle having the same area as that obtained above.
Dissolving time [1],Average particle diameter [3] [μm],Average particle diameter ([3]; listed as DXR.USP standard product (Lot J)) [μm],SMILES,Hygroscopicity [2]
1.5 to 2 min,86,,"COc1cccc2c1C(=O)c1c(O)c3c(c(O)c1C2=O)C[C@@](O)(C(=O)CO)C[C@@H]3O[C@H]1C[C@H](N)[C@H](O)[C@H](C)O1 [Example 46, doxorubicin hydrochloride]",+ (a weight-increasing rate of less than 0.20% is shown by an evaluation criterion that the hygroscopicity is small: (+))
3-3.5* minute,,28,"COc1cccc2c1C(=O)c1c(O)c3c(c(O)c1C2=O)C[C@@](O)(C(=O)CO)C[C@@H]3O[C@H]1C[C@H](N)[C@H](O)[C@H](C)O1 [DXR.USP (comparison), doxorubicin hydrochloride]",
,39,,"COc1cccc2c1C(=O)c1c(O)c3c(c(O)c1C2=O)C[C@@](O)(C(=O)CO)C[C@@H]3O[C@H]1C[C@H](N)[C@H](O)[C@H](C)O1 [Example 23, doxorubicin hydrochloride]",± (a weight-increasing rate of 0.20% or more and less than 0.40% is shown by an evaluation criterion that the hygroscopicity is ;intermediate (±))
1.5 to 2 min,24,,"COc1cccc2c1C(=O)c1c(O)c3c(c(O)c1C2=O)C[C@@](O)(C(=O)CO)C[C@@H]3O[C@H]1C[C@H](N)[C@H](O)[C@H](C)O1 [Example 55, doxorubicin hydrochloride]",+ (a weight-increasing rate of less than 0.20% is shown by an evaluation criterion that the hygroscopicity is small: (+))
,51,,"COc1cccc2c1C(=O)c1c(O)c3c(c(O)c1C2=O)C[C@@](O)(C(=O)CO)C[C@@H]3O[C@H]1C[C@H](N)[C@H](O)[C@H](C)O1 [Example 24, doxorubicin hydrochloride]",+ (a weight-increasing rate of less than 0.20% is shown by an evaluation criterion that the hygroscopicity is small: (+))
1.5 to 2 min,35,,"COc1cccc2c1C(=O)c1c(O)c3c(c(O)c1C2=O)C[C@@](O)(C(=O)CO)C[C@@H]3O[C@H]1C[C@H](N)[C@H](O)[C@H](C)O1 [Example 57, doxorubicin hydrochloride]",± (a weight-increasing rate of 0.20% or more and less than 0.40% is shown by an evaluation criterion that the hygroscopicity is ;intermediate (±))

# More lines, now with the values behind:
SMILES,Dissolving time [1],Average particle diameter [3] [μm],Average particle diameter ([3]; listed as DXR.USP standard product (Lot J)) [μm],Hygroscopicity [2]
"COc1cccc2c1C(=O)c1c(O)c3c(c(O)c1C2=O)C[C@@](O)(C(=O)CO)C[C@@H]3O[C@H]1C[C@H](N)[C@H](O)[C@H](C)O1 [Example 51, doxorubicin hydrochloride]",1.5 to 2 min,73,,+ (a weight-increasing rate of less than 0.20% is shown by an evaluation criterion that the hygroscopicity is small: (+))
"COc1cccc2c1C(=O)c1c(O)c3c(c(O)c1C2=O)C[C@@](O)(C(=O)CO)C[C@@H]3O[C@H]1C[C@H](N)[C@H](O)[C@H](C)O1 [Example 56, doxorubicin hydrochloride]",1.5 to 2 min,37,,+ (a weight-increasing rate of less than 0.20% is shown by an evaluation criterion that the hygroscopicity is small: (+))
"COc1cccc2c1C(=O)c1c(O)c3c(c(O)c1C2=O)C[C@@](O)(C(=O)CO)C[C@@H]3O[C@H]1C[C@H](N)[C@H](O)[C@H](C)O1 [Example 58, doxorubicin hydrochloride]",14.5 to 15 min,<4,,− (a weight-increasing rate of 0.40% or more is shown by an evaluation criterion that the hygroscopicity is large (−))
"COc1cccc2c1C(=O)c1c(O)c3c(c(O)c1C2=O)C[C@@](O)(C(=O)CO)C[C@@H]3O[C@H]1C[C@H](N)[C@H](O)[C@H](C)O1 [Example 22, doxorubicin hydrochloride]",,47,,+ (a weight-increasing rate of less than 0.20% is shown by an evaluation criterion that the hygroscopicity is small: (+))
"COc1cccc2c1C(=O)c1c(O)c3c(c(O)c1C2=O)C[C@@](O)(C(=O)CO)C[C@@H]3O[C@H]1C[C@H](N)[C@H](O)[C@H](C)O1 [Example 30, doxorubicin hydrochloride]",,39,,+ (a weight-increasing rate of less than 0.20% is shown by an evaluation criterion that the hygroscopicity is small: (+))
"COc1cccc2c1C(=O)c1c(O)c3c(c(O)c1C2=O)C[C@@](O)(C(=O)CO)C[C@@H]3O[C@H]1C[C@H](N)[C@H](O)[C@H](C)O1 [Example 33, doxorubicin hydrochloride]",,25,,± (a weight-increasing rate of 0.20% or more and less than 0.40% is shown by an evaluation criterion that the hygroscopicity is ;intermediate (±))
"COc1cccc2c1C(=O)c1c(O)c3c(c(O)c1C2=O)C[C@@](O)(C(=O)CO)C[C@@H]3O[C@H]1C[C@H](N)[C@H](O)[C@H](C)O1 [Example 38, doxorubicin hydrochloride]",,28,,+ (a weight-increasing rate of less than 0.20% is shown by an evaluation criterion that the hygroscopicity is small: (+))
"COc1cccc2c1C(=O)c1c(O)c3c(c(O)c1C2=O)C[C@@](O)(C(=O)CO)C[C@@H]3O[C@H]1C[C@H](N)[C@H](O)[C@H](C)O1 [Example 2, doxorubicin hydrochloride]",4 to 4.5 min,<4,,− (a weight-increasing rate of 0.40% or more is shown by an evaluation criterion that the hygroscopicity is large (−))
"COc1cccc2c1C(=O)c1c(O)c3c(c(O)c1C2=O)C[C@@](O)(C(=O)CO)C[C@@H]3O[C@H]1C[C@H](N)[C@H](O)[C@H](C)O1 [Example 34, doxorubicin hydrochloride]",,23,,± (a weight-increasing rate of 0.20% or more and less than 0.40% is shown by an evaluation criterion that the hygroscopicity is ;intermediate (±))
"COc1cccc2c1C(=O)c1c(O)c3c(c(O)c1C2=O)C[C@@](O)(C(=O)CO)C[C@@H]3O[C@H]1C[C@H](N)[C@H](O)[C@H](C)O1 [Example 49, doxorubicin hydrochloride]",,71,,+ (a weight-increasing rate of less than 0.20% is shown by an evaluation criterion that the hygroscopicity is small: (+))
"COc1cccc2c1C(=O)c1c(O)c3c(c(O)c1C2=O)C[C@@](O)(C(=O)CO)C[C@@H]3O[C@H]1C[C@H](N)[C@H](O)[C@H](C)O1 [Example 35, doxorubicin hydrochloride]",,20,,± (a weight-increasing rate of 0.20% or more and less than 0.40% is shown by an evaluation criterion that the hygroscopicity is ;intermediate (±))
